Laboratory results taken from PMC11845477, “Exploring the principles behind antibiotics with limited resistance” (Nature Communications, 2025).

Experiments:
[1] = tested on: E. coli ATCC 25922 (SEN) and E. coli NCTC13846 (MDR); assay: Adaptive laboratory evolution (ALE), relative MIC of evolved lines; type: cell-based, Escherichia coli
Procedure, shortened: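 Ten parallel populations per antibiotic–ancestor pair were evolved in MHB at 37 °C, starting near 50% growth-inhibiting drug. Every 72 h they were passaged into 0.5–2.5× increasing concentrations, keeping the highest-drug well with OD600 > 0.2.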

[2] = tested on: K. pneumoniae ATCC 10031 (SEN) and K. pneumoniae ATCC 700603 (MDR); assay: Frequency-of-resistance (FoR) assay, relative MIC of mutants; type: cell-based, Klebsiella pneumoniae
Procedure, shortened: (§1)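 About 10^10 cells, grown overnight in MHB at 37 °C and washed, were plated on agar containing antibiotic at concentrations the strain is susceptible to, for 48 h at 37 °C. Ten colonies from the highest concentration were MIC-tested; relative MIC = MICevolved/MICancestor.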

[3] = tested on: A. baumannii ATCC 17978 (SEN) and A. baumannii ATCC BAA-1605 (MDR); assay: as above; type: cell-based, Acinetobacter baumannii
Procedure, shortened: as §1

[4] = EC-SEN (E. coli ATCC 25922), evolved line 7 of the given antibiotic
[5] = EC-SEN (E. coli ATCC 25922), evolved line 9 of the given antibiotic
[6] = Klebsiella pneumoniae ATCC 10031 (KP-SEN), evolved line 1
[7] = Klebsiella pneumoniae ATCC 10031 (KP-SEN), evolved line 2
[8] = Klebsiella pneumoniae ATCC 10031 (KP-SEN), evolved line 3
[9] = Klebsiella pneumoniae ATCC 700603 (KP-MDR), evolved line 1
[10] = Klebsiella pneumoniae ATCC 700603 (KP-MDR), evolved line 2
[11] = Klebsiella pneumoniae ATCC 700603 (KP-MDR), evolved line 3
[12] = Acinetobacter baumannii ATCC 17978 (AB-SEN), evolved line 1
[13] = Acinetobacter baumannii ATCC 17978 (AB-SEN), evolved line 2
[14] = Acinetobacter baumannii ATCC 17978 (AB-SEN), evolved line 3

C[C@@H](O)[C@H]1C(=O)N2C(C(=O)O)=C(S[C@H]3CC[S@@+]([O-])C3)S[C@H]12 [Sulopenem]
0.0312 µg/mL: MIC of evolved line [2, 6] | MIC of evolved line [2, 7] | MIC of evolved line [2, 8]
16 µg/mL: MIC of evolved line ([1]; EC-MDR (E. coli NCTC 13846), evolved line 1 of the given antibiotic) | MIC of evolved line ([1]; EC-MDR (E. coli NCTC 13846), evolved line 5 of the given antibiotic)
0.9031 log10: Relative MIC (log10) ([1]; EC-SEN (Escherichia coli ATCC 25922), evolved line 6) | Relative MIC (log10) ([1]; EC-SEN (Escherichia coli ATCC 25922), evolved line 7) | Relative MIC (log10) ([1]; EC-SEN (Escherichia coli ATCC 25922), evolved line 8)
2.107 log10: Relative MIC (log10) ([1]; EC-MDR (Escherichia coli NCTC 13846), evolved line 4) | Relative MIC (log10) ([1]; EC-MDR (Escherichia coli NCTC 13846), evolved line 8) | Relative MIC (log10) ([1]; EC-MDR (Escherichia coli NCTC 13846), evolved line 10)
128: Relative MIC ([1]; EC-MDR (E. coli NCTC 13846), evolved line 3 vs ancestor) | Relative MIC ([1]; EC-MDR (E. coli NCTC 13846), evolved line 4 vs ancestor) | Relative MIC ([1]; EC-MDR (E. coli NCTC 13846), evolved line 8 vs ancestor) | Relative MIC ([1]; EC-MDR (E. coli NCTC 13846), evolved line 10 vs ancestor) | Relative MIC ([1]; Escherichia coli NCTC 13846 (EC-MDR), evolved line 3) | Relative MIC ([1]; Escherichia coli NCTC 13846 (EC-MDR), evolved line 4) | Relative MIC ([1]; Escherichia coli NCTC 13846 (EC-MDR), evolved line 8) | Relative MIC ([1]; Escherichia coli NCTC 13846 (EC-MDR), evolved line 10)
2.408 log10: Relative MIC (log10) ([1]; EC-MDR (Escherichia coli NCTC 13846), evolved line 9)
8 µg/mL: MIC of evolved line ([1]; EC-MDR (E. coli NCTC 13846), evolved line 9 of the given antibiotic) | MIC of evolved line [2, 11]
4 µg/mL: MIC of evolved line ([1]; EC-MDR (E. coli NCTC 13846), evolved line 3 of the given antibiotic) | MIC of evolved line ([1]; EC-MDR (E. coli NCTC 13846), evolved line 4 of the given antibiotic) | MIC of evolved line ([1]; EC-MDR (E. coli NCTC 13846), evolved line 8 of the given antibiotic) | MIC of evolved line ([1]; EC-MDR (E. coli NCTC 13846), evolved line 10 of the given antibiotic) | MIC of evolved line [2, 9] | MIC of evolved line [2, 10] | MIC of evolved line [3, 12] | MIC of evolved line [3, 13] | MIC of evolved line [3, 14]
0.6021 log10: Relative MIC (log10) ([1]; EC-SEN (Escherichia coli ATCC 25922), evolved line 9) | Relative MIC (log10) ([1]; EC-SEN (Escherichia coli ATCC 25922), evolved line 10)
1: Relative MIC ([2]; Klebsiella pneumoniae ATCC 10031 (KP-SEN), evolved line 1 versus ancestor) | Relative MIC ([2]; Klebsiella pneumoniae ATCC 10031 (KP-SEN), evolved line 2 versus ancestor) | Relative MIC ([2]; Klebsiella pneumoniae ATCC 10031 (KP-SEN), evolved line 3 versus ancestor)
0.5 µg/mL: MIC of evolved line ([1]; EC-MDR (E. coli NCTC 13846), evolved line 2 of the given antibiotic) | MIC of evolved line ([1]; EC-MDR (E. coli NCTC 13846), evolved line 7 of the given antibiotic)
0.125 µg/mL: MIC of evolved line [1, 5] | MIC of evolved line ([1]; EC-SEN (E. coli ATCC 25922), evolved line 10 of the given antibiotic)
0.25 µg/mL: MIC of evolved line ([1]; EC-SEN (E. coli ATCC 25922), evolved line 5 of the given antibiotic) | MIC of evolved line ([1]; EC-SEN (E. coli ATCC 25922), evolved line 6 of the given antibiotic) | MIC of evolved line [1, 4] | MIC of evolved line ([1]; EC-SEN (E. coli ATCC 25922), evolved line 8 of the given antibiotic)
8: Relative MIC ([1]; EC-SEN (E. coli ATCC 25922), evolved line 5 vs ancestor) | Relative MIC ([1]; EC-SEN (E. coli ATCC 25922), evolved line 6 vs ancestor) | Relative MIC ([1]; EC-SEN (E. coli ATCC 25922), evolved line 7 vs ancestor) | Relative MIC ([1]; EC-SEN (E. coli ATCC 25922), evolved line 8 vs ancestor) | Relative MIC ([1]; Escherichia coli ATCC 25922 (EC-SEN), evolved line 5) | Relative MIC ([1]; Escherichia coli ATCC 25922 (EC-SEN), evolved line 6) | Relative MIC ([1]; Escherichia coli ATCC 25922 (EC-SEN), evolved line 7) | Relative MIC ([1]; Escherichia coli ATCC 25922 (EC-SEN), evolved line 8) | Relative MIC ([2]; Klebsiella pneumoniae ATCC 700603 (KP-MDR), evolved line 1 versus ancestor) | Relative MIC ([2]; Klebsiella pneumoniae ATCC 700603 (KP-MDR), evolved line 2 versus ancestor)
16: Relative MIC ([1]; EC-MDR (E. coli NCTC 13846), evolved line 2 vs ancestor) | Relative MIC ([1]; EC-MDR (E. coli NCTC 13846), evolved line 7 vs ancestor) | Relative MIC ([1]; Escherichia coli NCTC 13846 (EC-MDR), evolved line 2) | Relative MIC ([1]; Escherichia coli NCTC 13846 (EC-MDR), evolved line 7) | Relative MIC ([2]; Klebsiella pneumoniae ATCC 700603 (KP-MDR), evolved line 3 versus ancestor)
4: Relative MIC ([1]; EC-SEN (E. coli ATCC 25922), evolved line 9 vs ancestor) | Relative MIC ([1]; EC-SEN (E. coli ATCC 25922), evolved line 10 vs ancestor) | Relative MIC ([1]; Escherichia coli ATCC 25922 (EC-SEN), evolved line 9) | Relative MIC ([1]; Escherichia coli ATCC 25922 (EC-SEN), evolved line 10) | Relative MIC ([3]; Acinetobacter baumannii ATCC 17978 (AB-SEN), evolved line 1 versus ancestor) | Relative MIC ([3]; Acinetobacter baumannii ATCC 17978 (AB-SEN), evolved line 2 versus ancestor) | Relative MIC ([3]; Acinetobacter baumannii ATCC 17978 (AB-SEN), evolved line 3 versus ancestor)
2.709 log10: Relative MIC (log10) ([1]; EC-MDR (Escherichia coli NCTC 13846), evolved line 5)
512: Relative MIC ([1]; EC-MDR (E. coli NCTC 13846), evolved line 1 vs ancestor) | Relative MIC ([1]; EC-MDR (E. coli NCTC 13846), evolved line 5 vs ancestor) | Relative MIC ([1]; Escherichia coli NCTC 13846 (EC-MDR), evolved line 1) | Relative MIC ([1]; Escherichia coli NCTC 13846 (EC-MDR), evolved line 5)
256: Relative MIC ([1]; EC-MDR (E. coli NCTC 13846), evolved line 9 vs ancestor) | Relative MIC ([1]; Escherichia coli NCTC 13846 (EC-MDR), evolved line 9)

polymyxin-B
4 µg/mL: MIC of evolved line [2, 10]
0.5 µg/mL: MIC of evolved line [2, 9] | MIC of evolved line [3, 12] | MIC of evolved line [3, 13] | MIC of evolved line [3, 14]
32 µg/mL: MIC of evolved line ([1]; EC-MDR NCTC 13846, evolved line 8) | MIC of evolved line [2, 11]
64 µg/mL: MIC of evolved line ([1]; EC-MDR NCTC 13846, evolved line 3) | MIC of evolved line ([1]; EC-MDR NCTC 13846, evolved line 5) | MIC of evolved line ([1]; EC-MDR NCTC 13846, evolved line 6) | MIC of evolved line ([1]; EC-MDR NCTC 13846, evolved line 9) | MIC of evolved line ([1]; EC-MDR NCTC 13846, evolved line 10) | MIC of evolved line ([1]; EC-SEN (E. coli ATCC 25922), evolved line 1 of the given antibiotic) | MIC of evolved line ([1]; EC-SEN (E. coli ATCC 25922), evolved line 3 of the given antibiotic) | MIC of evolved line [1, 4] | MIC of evolved line [1, 5]
16 µg/mL: MIC of evolved line ([3]; Acinetobacter baumannii ATCC BAA 1605 (AB-MDR), evolved line 3)
2 µg/mL: MIC of evolved line [2, 6] | MIC of evolved line [2, 7] | MIC of evolved line [2, 8]
